Data from US6784137B2, “6-aryl-4-aminopicolinates and their use as herbicides” (Dow AgroSciences LLC, priority 2001, dated 2004).
Read-outs that look alike come from different tables or passages of the source.

Columns and labels:
[1] = tested on: Barnyardgrass (Echinochloa crus-galli); assay: Postemergence herbicidal activity, greenhouse spray; format: in vivo; settings: visual score after 2 weeks; for pest or weed control at 500 ppm / pest or weed control at 125 ppm: Echinochloa crus-galli, post-emergence, 336 h, read-out: Post-emergent % control ECHCG; for pest or weed control at 500 ppm: rate 500 ppm
Method: (§1) When required to ensure good germination and healthy plants, a fungicide treatment and/or other chemical or physical treatment was applied. The plants were grown for 7-21 days in a greenhouse with an approximate 15 hr photoperiod which was maintained at about 23-29° C. during the day and 22-28° C. during the night. Nutrients and water were added on a regular basis and supplemental lighting was provided with overhead metal halide 1000-Watt lamps as necessary. The plants were employed for testing when they reached the first or second true leaf stage. A weighed amount, determined by the highest rate to be tested, of each test compound was placed in a 20 mL glass vial and was dissolved in 4 mL of a 97:3 v/v (volume/volume) mixture of acetone and dimethyl sulfoxide (DMSO) to obtain concentrated stock solutions. […] The concentrated stock solutions obtained were diluted with an aqueous mixture containing acetone, water, isopropyl alcohol, DMSO, At plus 411 F crop oil concentrate, and Triton X-155 surfactant in a 48.5:39:10:1.5:1.0:0.02 v/v ratio to obtain spray solutions of known concentration. The solutions containing the highest concentration to be tested were prepared by diluting 2 mL aliquots of the stock solution with 13 mL of the mixture and lower concentrations were prepared by serial dilution of the stock solution. Approximately 1.5 mL aliquots of each solution of known concentration were sprayed evenly onto each of the test plant pots using a DeVilbiss atomizer driven by compressed air pressure of 2 to 4 psi (140 to 280 kiloPascals) to obtain thorough coverage of each plant. Control plants were sprayed in the same manner with the aqueous mixture. […] The treated plants and control plants were placed in a greenhouse as described above and watered by sub-irrigation to prevent wash-off of the test compounds.

[2] = tested on: Yellow nutsedge (Cyperus esculentus); assay: as above; format: in vivo; settings: visual score after 2 weeks; for pest or weed control at 500 ppm / pest or weed control at 125 ppm: Cyperus, post-emergence, 336 h, read-out: Post-emergent % control CYPES; for pest or weed control at 500 ppm: rate 500 ppm
Method: as §1

[3] = tested on: Cocklebur (Xanthium strumarium); assay: as above; format: in vivo; settings: visual score after 2 weeks; for pest or weed control at 500 ppm / pest or weed control at 125 ppm: Xanthium strumarium, post-emergence, 336 h, read-out: Post-emergent % control XANST; for pest or weed control at 500 ppm: rate 500 ppm, 0 no injury, 100 complete kill
Method: as §1

[4] = tested on: Lambsquarter (Chenopodium album); assay: as above; format: in vivo; settings: visual score after 2 weeks; for pest or weed control at 500 ppm / pest or weed control at 125 ppm: Chenopodium album, post-emergence, 336 h, read-out: Post-emergent % control CHEAL; for pest or weed control at 500 ppm: rate 500 ppm
Method: as §1

[5] = tested on: Giant Foxtail (Setaria faberi); assay: Preemergence herbicidal activity, soil spray; format: in vivo; settings: Table 5, visual score after 3 weeks
Source text: (§2) Seeds of the desired test plant species were planted in a soil matrix prepared by mixing a loam soil (43 percent silt, 19 percent clay, and 38 percent sand, with a pH of about 8.1 and an organic matter content of about 1.5 percent) and sand in a 70 to 30 ratio. The soil matrix was contained in plastic pots with a surface area of 113 square centimeters. When required to ensure good germination and healthy plants, a fungicide treatment and/or other chemical or physical treatment was applied. A weighed amount, determined by the highest rate to be tested, of each test compound was placed in a 20 mL glass vial and was dissolved in 4 mL of a 97:3 v/v (volume/volume) mixture of acetone and dimethyl sulfoxide to obtain concentrated stock solutions. […] The stock solutions obtained were diluted with a 99.9:0.1 mixture of water and Tween® 155 surfactant to obtain application solutions of known concentration. The solutions containing the highest concentration to be tested were prepared by diluting 2 mL aliquots of the stock solution with 15 mL of the mixture and lower concentrations were prepared by serial dilution of the stock solution. A 2.5 mL aliquot of each solution of known concentration was sprayed evenly onto the soil surface (113 sq. cm) of each seeded pot using a Cornwall 5.0 mL glass syringe fitted with a TeeJet TN-3 hollow cone nozzle to obtain thorough coverage of the soil in each pot. Control pots were sprayed in the same manner with the aqueous mixture. The treated pots and control pots were placed in a greenhouse maintained with an approximate 15 hr photoperiod and temperatures of about 23-29° C. during the day and 22-28° C. during the night. Nutrients and water were added on a regular basis and supplemental lighting was provided with overhead metal halide 1000-Watt lamps as necessary. The water was added by top-irrigation.

[6] = tested on: Crabgrass(large) (Digitaria sanguinalis); assay: Preemergence herbicidal activity, soil spray; format: in vivo; settings: Table 5, visual score after 3 weeks
Source text: as §2

[7] = tested on: Pigweed (redroot) (Amaranthus retroflexus); assay: Preemergence herbicidal activity, soil spray; format: in vivo; settings: Table 5, visual score after 3 weeks
Source text: as §2

[8] = tested on: Lambsquarter (Chenopodium album); assay: Preemergence herbicidal activity, soil spray; format: in vivo; settings: Table 5, visual score after 3 weeks
Source text: as §2

[9] = rate 560 ppm, 100 complete kill or no germination
[10] = Setaria faberi, pre-emergence, 504 h, rate 140 ppm, read-out: Pre-emergent % control SETFA
[11] = Digitaria sanguinalis, pre-emergence, 504 h, rate 140 ppm, read-out: Pre-emergent % control DIGSA
[12] = Amaranthus retroflexus, pre-emergence, 504 h, rate 140 ppm, read-out: Pre-emergent % control AMARE
[13] = Chenopodium album, pre-emergence, 504 h, rate 140 ppm, read-out: Pre-emergent % control CHEAL

Row | Structure (SMILES) | pest or weed control at 500 ppm ([1]; Table 1) | pest or weed control at 125 ppm ([1]; Table 2, rate 125 ppm) | pest or weed control at 500 ppm ([2]; Table 1) | pest or weed control at 125 ppm ([2]; Table 2, rate 125 ppm) | pest or weed control at 500 ppm ([3]; Table 1) | pest or weed control at 125 ppm ([3]; Table 2, rate 125 ppm) | pest or weed control at 500 ppm ([4]; Table 1) | pest or weed control at 125 ppm ([4]; Table 2, rate 125 ppm) | pest or weed control at 140 ppm [5, 10] | pest or weed control at 140 ppm [6, 11] | pest or weed control at 140 ppm [7, 12] | pest or weed control at 140 ppm [8, 13] | melting point | further results
1 | COC(=O)c1nc(-c2ccc(C)cc2)cc(-n2cccc2)c1Cl [Compound 89, Methyl 4-N-pyrolyl-3-chloro-6-(4-methylphenyl)pyridine-2-carboxylate] | – | – | – | – | – | – | – | – | – | – | – | – | – | Post-emergent % control ECHCG ([1]; Table 1, rate 250 ppm): 90%; Post-emergent % control CYPES ([2]; Table 1, rate 250 ppm): 50%; Post-emergent % control XANST ([3]; Table 1, rate 250 ppm): 100%; Post-emergent % control CHEAL ([4]; Table 1, rate 250 ppm): 100%; Pre-emergent % control SETFA ([5]; rate 560 ppm): 85%; Pre-emergent % control DIGSA ([6]; rate 560 ppm): 90%; Pre-emergent % control AMARE ([7]; rate 560 ppm): 100%; Pre-emergent % control CHEAL [8, 9]: 100%
2 | Nc1cc(-c2ccc(F)c(Cl)c2)nc(C(=O)O)c1Cl [Compound 151, 4-Amino-3-chloro-6-(3-chloro-4-fluorophenyl)pyridine-2-carboxylic acid] | 100% | 85% | 85% | 90% | 100% | 100% | 100% | 100% | 100% | 100% | 100% | 100% | 183 to 184 °C | –
3 | Nc1c(F)c(C(=O)O)nc(-c2ccccc2Cl)c1F [Compound 202, 4-Amino-3,5-difluoro-6-(6-chlorophenyl)pyridine-2-carboxylic acid] | 100% | 70% | 95% | 80% | 100% | 100% | 100% | 100% | 95% | 100% | 100% | 95% | 166 to 167 °C (dec.) | –
4 | Nc1cc(-c2ccc(Cl)cc2)nc(C(=O)O)c1Cl [Compound 154, 4-Amino-3-chloro-6-(4-chlorophenyl)pyridine-2-carboxylic acid] | 100% | 70% | 100% | 90% | 100% | 100% | 100% | 100% | 100% | 100% | 100% | 100% | 165 °C | –
5 | COC(=O)c1nc(-c2ccc(Cl)cc2F)cc(N)c1Cl [Compound 59, Methyl 4-amino-3-chloro-6-(4-chloro-2-fluorophenyl)pyridine-2-carboxylate] | 80% | – | – | – | 100% | – | 100% | – | – | – | – | – | 107 to 109 °C | pest or weed control at 280 ppm ([5]; Setaria faberi, pre-emergence, 504 h, rate 280 ppm, read-out: Pre-emergent % control SETFA): 100%; pest or weed control at 280 ppm ([6]; Digitaria sanguinalis, pre-emergence, 504 h, rate 280 ppm, read-out: Pre-emergent % control DIGSA): 100%; pest or weed control at 280 ppm ([7]; Amaranthus retroflexus, pre-emergence, 504 h, rate 280 ppm, read-out: Pre-emergent % control AMARE): 100%; pest or weed control at 280 ppm ([8]; Chenopodium album, pre-emergence, 504 h, rate 280 ppm, read-out: Pre-emergent % control CHEAL): 100%
6 | Cc1ccc(-c2cc(-n3cccc3)c(Cl)c(C(=O)O)n2)cc1 [Compound 180, 3-chloro-6-(4-methylphenyl)-4-(N-pyrolyl)pyridine-2-carboxylic acid] | – | – | – | – | – | – | – | – | – | – | – | – | – | Post-emergent % control ECHCG ([1]; Table 1, rate 250 ppm): 70%; Post-emergent % control CYPES ([2]; Table 1, rate 250 ppm): 30%; Post-emergent % control XANST ([3]; Table 1, rate 250 ppm): 80%; Post-emergent % control CHEAL ([4]; Table 1, rate 250 ppm): 100%; Pre-emergent % control SETFA ([5]; rate 560 ppm): 100%; Pre-emergent % control DIGSA ([6]; rate 560 ppm): 95%; Pre-emergent % control AMARE ([7]; rate 560 ppm): 100%; Pre-emergent % control CHEAL [8, 9]: 100%
7 | Nc1c(F)c(-c2ccc(C(F)(F)F)cc2)nc(C(=O)O)c1Cl [Compound 172, 4-Amino-3-chloro-5-fluoro-6-(4-trifluorophenyl)pyridine-2-carboxylic acid] | – | – | – | – | – | – | – | – | – | – | – | – | – | Post-emergent % control ECHCG ([1]; Table 1, rate 125 ppm): 90%; Post-emergent % control CYPES ([2]; Table 1, rate 125 ppm): 90%; Post-emergent % control XANST ([3]; Table 1, rate 125 ppm): 100%; Post-emergent % control CHEAL ([4]; Table 1, rate 125 ppm): 90%; Pre-emergent % control SETFA ([5]; rate 140 ppm): 90%; Pre-emergent % control DIGSA ([6]; rate 140 ppm): 95%; Pre-emergent % control AMARE ([7]; rate 140 ppm): 95%; Pre-emergent % control CHEAL ([8]; rate 140 ppm): 90%
8 | Nc1cc(-c2ccc(C(F)(F)F)cc2Cl)nc(C(=O)O)c1Cl [Compound 184, 4-Amino-3-chloro-6-(2-chloro-4-(trifluoromethyl)phenyl)pyridine-2-carboxylic acid] | – | – | – | – | – | – | – | – | 70% | 90% | 85% | 90% | – | pest or weed control at 125 ppm ([1]; Table 1, rate 125 ppm): 70%; pest or weed control at 125 ppm ([2]; Table 1, rate 125 ppm): 40%; pest or weed control at 125 ppm ([3]; Table 1, rate 125 ppm): 100%; pest or weed control at 125 ppm ([4]; Table 1, rate 125 ppm): 70%
9 | Nc1c(F)c(-c2ccc(Cl)cc2)nc(C(=O)O)c1Cl [Compound 173, 4-Amino-3-chloro-5-fluoro-6-(4-chlorophenyl)pyridine-2-carboxylic acid] | 100% | – | 100% | – | 100% | – | 100% | – | – | – | – | – | – | pest or weed control at 560 ppm ([5]; Setaria faberi, pre-emergence, 504 h, rate 560 ppm, read-out: Pre-emergent % control SETFA): 100%; pest or weed control at 560 ppm ([6]; Digitaria sanguinalis, pre-emergence, 504 h, rate 560 ppm, read-out: Pre-emergent % control DIGSA): 100%; pest or weed control at 560 ppm ([7]; Amaranthus retroflexus, pre-emergence, 504 h, rate 560 ppm, read-out: Pre-emergent % control AMARE): 100%; pest or weed control at 560 ppm ([8]; Chenopodium album, pre-emergence, 504 h, rate 560 ppm, 100 complete kill or no germination, read-out: Pre-emergent % control CHEAL): 100%
